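Following 48 hours of exposure in 96-well plates, responses at five concentrations were used to interpolate endpoints linearly. GI50 is the concentration that inhibits growth by half.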 Calls of active or inactive are those of the source. Rule as the data show it: active = GI50 up to about 1.1 µM and inactive = higher.
Tests used:
Assay in all cases: NCI-60 cell line screen, 48 h
CAKI-1 = system: CAKI-1
CCRF-CEM = system: CCRF-CEM
COLO 205 = system: COLO 205
EKVX = system: EKVX
HCC 2998 = system: HCC 2998
HCT-15 = system: HCT-15
Hs-578T = system: Hs-578T
MDA-MB-435 = system: MDA-MB-435
MOLT-4 = system: MOLT-4
NCI-H226 = system: NCI-H226
NCI-H23 = system: NCI-H23
NCI-H460 = system: NCI-H460
OVCAR-5 = system: OVCAR-5
SK-MEL-28 = system: SK-MEL-28
SNB-75 = system: SNB-75
SW-620 = system: SW-620
T47D = system: T47D
TK-10 = system: TK-10
U-251 = system: U-251
UACC-257 = system: UACC-257

SMILES	GI50 (CAKI-1)	GI50 (CCRF-CEM)	GI50 (COLO 205)	GI50 (EKVX)	GI50 (HCC 2998)	GI50 (HCT-15) [nM]	GI50 (Hs-578T)	GI50 (MDA-MB-435)	GI50 (MOLT-4)	GI50 (NCI-H226)	GI50 (NCI-H23)	GI50 (NCI-H460)	GI50 (OVCAR-5)	GI50 (SK-MEL-28)	GI50 (SNB-75)	GI50 (SW-620)	GI50 (T47D)	GI50 (TK-10)	GI50 (U-251)	GI50 (UACC-257)
COc1ccc2c(c1)-c1nc(=S)n(CCN(C)C)c3ccc([N+](=O)[O-])c(c13)N2	1.49 µM (inactive)	1.09 µM (active)	0.865 µM (active)	1.97 µM (inactive)	0.809 µM (active)	731	1.37 µM (inactive)	2.1 µM (inactive)	0.15 µM (active)	0.973 µM (active)	1.16 µM (inactive)	0.365 µM (active)	3.13 µM (inactive)	1.44 µM (inactive)	1.3 µM (inactive)	0.404 µM (active)	4.81 µM (inactive)	1.07 µM (active)	1.08 µM (active)	1 µM (active)
c1c2c(cc3c1OCO3)-c1cc3ccc4c(c3c[n+]1CC2)OCO4 [COPTISINE CHLORIDE]	> 12.5 µM (inactive)	0.764 µM (active)	3.56 µM (inactive)	7.71 µM (inactive)	3.85 µM (inactive)	638	1.38 µM (inactive)	0.308 µM (active)	1.29 µM (inactive)	1.92 µM (inactive)	0.815 µM (active)	0.53 µM (active)	> 12.5 µM (inactive)	1.2 µM (inactive)	1.28 µM (inactive)	0.462 µM (active)	3.13 µM (inactive)	> 12.5 µM (inactive)	0.935 µM (active)	1.95 µM (inactive)
CN(c1ccccc1)S(=O)(=O)c1ccccc1[N+](=O)[O-]	> 100 µM (inactive)	44.3 µM (inactive)	> 100 µM (inactive)	> 100 µM (inactive)	> 100 µM (inactive)	> 100000	> 100 µM (inactive)	71.9 µM (inactive)	26.2 µM (inactive)	> 100 µM (inactive)	> 100 µM (inactive)	77.1 µM (inactive)	> 100 µM (inactive)	> 100 µM (inactive)	96.6 µM (inactive)	> 100 µM (inactive)	62.5 µM (inactive)	> 100 µM (inactive)	> 100 µM (inactive)	> 100 µM (inactive)
O=C1c2ccccc2S(=O)(=O)c2cc(-c3nn[nH]n3)ccc21 [DOXANTRAZOLE]	> 87.3 µM (inactive)	> 100 µM (inactive)	> 100 µM (inactive)	> 100 µM (inactive)	> 100 µM (inactive)	> 100000	> 100 µM (inactive)	> 100 µM (inactive)	> 100 µM (inactive)	> 100 µM (inactive)	> 100 µM (inactive)	> 100 µM (inactive)	> 100 µM (inactive)	> 100 µM (inactive)	> 100 µM (inactive)	> 100 µM (inactive)	> 76.4 µM (inactive)	> 100 µM (inactive)	> 100 µM (inactive)	> 100 µM (inactive)
COc1ncc(C#CC(=O)c2ccccc2OC)c(OC)n1	1.77 µM (inactive)	0.0995 µM (active)	2 µM (inactive)	3.25 µM (inactive)	6.35 µM (inactive)	621	9.98 µM (inactive)	2.78 µM (inactive)	0.386 µM (active)	1.42 µM (inactive)	2.73 µM (inactive)	6.34 µM (inactive)	3.41 µM (inactive)	2.86 µM (inactive)	4.03 µM (inactive)	0.78 µM (active)	2.93 µM (inactive)	0.891 µM (active)	3.89 µM (inactive)	3.52 µM (inactive)
CN(C)CCNC(=O)c1cccc2nc3c(ccc4ccccc43)nc12	3.37 µM (inactive)	1.16 µM (inactive)	1.6 µM (inactive)	5.74 µM (inactive)	1.98 µM (inactive)	1610	3.62 µM (inactive)	3.33 µM (inactive)	0.327 µM (active)	2.9 µM (inactive)	3.9 µM (inactive)	0.479 µM (active)	4.55 µM (inactive)	2.05 µM (inactive)	3.9 µM (inactive)	1.1 µM (active)	6.11 µM (inactive)	7.93 µM (inactive)	1.47 µM (inactive)	1.74 µM (inactive)
Cc1c2c(C#N)nccc2c(C)c2c1c1ccccc1n2Cc1ccccc1	> 100 µM (inactive)	> 100 µM (inactive)	> 100 µM (inactive)	3.79 µM (inactive)	> 100 µM (inactive)	> 100000	88.5 µM (inactive)	> 100 µM (inactive)	> 10 µM (inactive)	> 100 µM (inactive)	> 100 µM (inactive)	> 100 µM (inactive)	> 100 µM (inactive)	> 100 µM (inactive)	57.8 µM (inactive)	> 100 µM (inactive)	63.5 µM (inactive)	> 100 µM (inactive)	> 100 µM (inactive)	> 100 µM (inactive)
